Read-outs that look alike come from different tables or passages of the source.
System: Mycosphaerella graminicola; Anamorph: Septoria tritici; Bayer Code SEPTTR
Assay: Leaf blotch of wheat, foliar fungicide treatment, one day protectant (1DP) or three day curative (3DC)
Assay type: in vivo, Septoria tritici on wheat plants (variety Yuma)
Conditions: Zymoseptoria tritici; for pest or weed control at 50 ppm / pest or weed control at 200 ppm: % disease control rating
[1] = 24 h, one day protectant (1DP), 25 ppm (first 1DP column), percent control rating, read-out: SETTTR 1DP 25 ppm
[2] = 24 h, one day protectant (1DP), 25 ppm as printed (second 1DP column), percent control rating, read-out: SETTTR 1DP 25 ppm
[3] = 72 h, three day curative (3DC), 25 ppm, percent control rating, read-out: SEPTTR 3DC 25 ppm
[4] = 72 h, three day curative (3DC), percent control rating, read-out: SEPTTR 3DC 100 ppm
[5] = 24 h, one day protectant (1DP), 25 ppm, percent disease control rating, read-out: SETTTR 1DP 25 ppm
[6] = 24 h, one day protectant (1DP), percent disease control rating, read-out: SEPTTR 1DP 100 ppm
[7] = 72 h, three day curative (3DC), 25 ppm, percent disease control rating, read-out: SEPTTR 3DC 25 ppm
[8] = 72 h, three day curative (3DC), percent disease control rating, read-out: SEPTTR 3DC 100 ppm
[9] = 24 h, one day protectant (1DP), 25 ppm, rating of percent disease control, read-out: SETTTR 1DP 25 ppm
[10] = 24 h, one day protectant (1DP), rating of percent disease control, read-out: SEPTTR 1DP 100 ppm
[11] = 72 h, three day curative (3DC), 25 ppm, rating of percent disease control, read-out: SEPTTR 3DC 25 ppm
[12] = 72 h, three day curative (3DC), rating of percent disease control, read-out: SEPTTR 3DC 100 ppm
[13] = 24 h, one day protectant, 25 ppm, rating of percent disease control, read-out: SETTTR 1DP 25 ppm
[14] = 24 h, one day protectant, rating of percent disease control, read-out: SEPTTR 1DP 100 ppm
[15] = 72 h, three day curative, 25 ppm, rating of percent disease control, read-out: SEPTTR 3DC 25 ppm
[16] = 72 h, three day curative, rating of percent disease control, read-out: SEPTTR 3DC 100 ppm

## Fc1ccccc1NNc1nc(OCc2ccccc2)ncc1F [Compound 1028]
[1]
  pest or weed control at 25 ppm: 0 to 25%
[2]
  pest or weed control at 25 ppm: 0 to 25%
[3]
  pest or weed control at 25 ppm: 0 to 25%
[4]
  pest or weed control at 100 ppm: 0 to 25%

## Nc1nc(OCCCC2CCCC2)ncc1F [Compound 106]
[5]
  pest or weed control at 25 ppm: 0 to 25%
[6]
  pest or weed control at 100 ppm: 0 to 25%
[7]
  pest or weed control at 25 ppm: 0 to 25%
[8]
  pest or weed control at 100 ppm: 26 to 50%

## CC(C)/C(=N\c1nc(OCc2ccc(F)cc2)ncc1F)N(C)C [Compound 744]
[9]
  pest or weed control at 25 ppm: 76 to 100%
[10]
  pest or weed control at 100 ppm: 76 to 100%
[11]
  pest or weed control at 25 ppm: 76 to 100%
[12]
  pest or weed control at 100 ppm: 76 to 100%

## Fc1ccccc1CNc1nc(OCc2ccc(Cl)cc2Cl)ncc1F [Compound 863]
24 h, one day protectant
  pest or weed control at 50 ppm: 76 to 100%
  pest or weed control at 200 ppm: 76 to 100%

## C=CCOc1ncc(F)c(N/N=C/C(C)=C/C)n1 [Compound 1063]
[1]
  pest or weed control at 25 ppm: 0 to 25%
[2]
  pest or weed control at 25 ppm: 0 to 25%
[3]
  pest or weed control at 25 ppm: 0 to 25%
[4]
  pest or weed control at 100 ppm: 0 to 25%

## O=[N+]([O-])c1ccccc1SNc1nc(OCc2cccc(C(F)(F)F)c2F)ncc1F [Compound 758]
[9]
  pest or weed control at 25 ppm: 26 to 50%
[10]
  pest or weed control at 100 ppm: 76 to 100%
[11]
  pest or weed control at 25 ppm: 26 to 50%
[12]
  pest or weed control at 100 ppm: 51 to 75%

## Cc1ccc(COc2ncc(F)c(NC(=O)OCc3ccccc3)n2)cc1 [Compound 613]
[13]
  pest or weed control at 25 ppm: 76 to 100%
[14]
  pest or weed control at 100 ppm: 76 to 100%
[15]
  pest or weed control at 25 ppm: 76 to 100%
[16]
  pest or weed control at 100 ppm: 76 to 100%

## COc1ncc(F)c(NNc2ccccn2)n1 [Compound 1050]
[1]
  pest or weed control at 25 ppm: 0 to 25%
[2]
  pest or weed control at 25 ppm: 0 to 25%
[3]
  pest or weed control at 25 ppm: 0 to 25%
[4]
  pest or weed control at 100 ppm: 26 to 50%

## C/C(=N\Nc1nc(O)ncc1F)c1ccc(Br)cc1 [Compound 1108]
[1]
  pest or weed control at 25 ppm: 0 to 25%
[2]
  pest or weed control at 25 ppm: 0 to 25%
[3]
  pest or weed control at 25 ppm: 0 to 25%
[4]
  pest or weed control at 100 ppm: 0 to 25%

## CC(C)(C)Oc1cccc(COc2ncc(F)c(N)n2)c1 [Compound 385]
[9]
  pest or weed control at 25 ppm: 76 to 100%
[10]
  pest or weed control at 100 ppm: 76 to 100%
[11]
  pest or weed control at 25 ppm: 76 to 100%
[12]
  pest or weed control at 100 ppm: 76 to 100%

## C=CCOc1ncc(F)c(NNc2ccc(Br)cc2)n1 [Compound 1078]
[1]
  pest or weed control at 25 ppm: 0 to 25%
[2]
  pest or weed control at 25 ppm: 0 to 25%
[3]
  pest or weed control at 25 ppm: 26 to 50%
[4]
  pest or weed control at 100 ppm: 0 to 25%

## CCOC(=O)C(=O)Nc1nc(OCc2ccc(C)cc2)ncc1F [Compound 553]
[13]
  pest or weed control at 25 ppm: 76 to 100%
[14]
  pest or weed control at 100 ppm: 76 to 100%
[15]
  pest or weed control at 25 ppm: 76 to 100%
[16]
  pest or weed control at 100 ppm: 76 to 100%

## COc1ccc(Oc2ncc(F)c(N)n2)cc1 [Compound 573]
[13]
  pest or weed control at 25 ppm: 26 to 50%
[14]
  pest or weed control at 100 ppm: 51 to 75%
[15]
  pest or weed control at 25 ppm: 0 to 25%
[16]
  pest or weed control at 100 ppm: 0 to 25%

## CC(Oc1ncc(F)c(N)n1)c1ccc(-c2ccc(Br)cc2)cc1 (centres unmarked) [Compound 175]
[5]
  pest or weed control at 25 ppm: 76 to 100%
[6]
  pest or weed control at 100 ppm: 76 to 100%
[7]
  pest or weed control at 25 ppm: 0 to 25%
[8]
  pest or weed control at 100 ppm: 0 to 25%

## Fc1cnc(OCc2ccccc2)nc1NNc1nccc(C(F)(F)F)n1 [Compound 1038]
[1]
  pest or weed control at 25 ppm: 0 to 25%
[2]
  pest or weed control at 25 ppm: 0 to 25%
[3]
  pest or weed control at 25 ppm: 0 to 25%
[4]
  pest or weed control at 100 ppm: 0 to 25%

## CC1CC1COc1ncc(F)c(N)n1 (centres unmarked) [Compound 747]
[9]
  pest or weed control at 25 ppm: 0 to 25%
[10]
  pest or weed control at 100 ppm: 76 to 100%
[11]
  pest or weed control at 25 ppm: 51 to 75%
[12]
  pest or weed control at 100 ppm: 76 to 100%

## CCCNC(=S)Nc1nc(OCc2ccccc2OC)ncc1F [Compound 475]
[9]
  pest or weed control at 25 ppm: 51 to 75%
[10]
  pest or weed control at 100 ppm: 76 to 100%
[11]
  pest or weed control at 25 ppm: 51 to 75%
[12]
  pest or weed control at 100 ppm: 76 to 100%

## CC1(COc2ncc(F)c(N)n2)COC1 [Compound 433]
[9]
  pest or weed control at 25 ppm: 0 to 25%
[10]
  pest or weed control at 100 ppm: 0 to 25%
[11]
  pest or weed control at 25 ppm: 0 to 25%
[12]
  pest or weed control at 100 ppm: 0 to 25%

## Cc1ccc(COc2ncc(F)c(NC(=O)Nc3ccccc3F)n2)cc1 [Compound 208]
[9]
  pest or weed control at 25 ppm: 0 to 25%
[10]
  pest or weed control at 100 ppm: 0 to 25%
[11]
  pest or weed control at 25 ppm: 0 to 25%
[12]
  pest or weed control at 100 ppm: 26 to 50%

## Fc1cnc(OCc2ccc(Cl)cc2)nc1NCc1ccc(Cl)cc1 [Compound 816]
24 h, one day protectant
  pest or weed control at 50 ppm: 76 to 100%
  pest or weed control at 200 ppm: 76 to 100%

## CCC(C)/C(C)=N/Nc1nc(OCc2ccc(C)cc2)ncc1F (centres unmarked) [Compound 533]
[9]
  pest or weed control at 25 ppm: 51 to 75%
[10]
  pest or weed control at 100 ppm: 51 to 75%
[11]
  pest or weed control at 25 ppm: 0 to 25%
[12]
  pest or weed control at 100 ppm: 26 to 50%
